SMILES strings stand for the structures.

For experiment [1], the system named is MG1655 E. coli (rpoB and mrcA regions of interest). The experiment is described as follows: Maximum-Depth Sequencing (MDS) of mutation rates in E. coli grown with sub-inhibitory antibiotic doses. It is filed as cell-based, Escherichia coli. The settings on record: for rate of transition mutations in rpoB: wild-type MG1655, aerobic, 1 μL/mL ampicillin or 15 ng/mL norfloxacin. On the procedure: E. coli were streaked onto Luria-Bertani (LB) Agar from freezer stocks and grown at 30° C. for 24 hours. According to plating and colony-forming unit (CFU) counting, the average number of cells in such colonies is 3×10^8 (thus the number of generations is […]. Bacteria from a single colony were used to inoculate a small liquid culture (1 ml LB broth in a round-bottom tube). For the purposes of generation counting, it is assumed that after the transition to growing in liquid, growth occurs for only ˜3 generations, since the number of bacteria in the colony is roughly equal to the carrying capacity of the broth. The culture was grown for 12 hours on a 37° C. shaker.
4 μL (˜10^7 bacteria) were transferred to a fresh 100 mL LB liquid culture (in a 250 mL Erlenmeyer flask). Liquid cultures were grown for 24 hours on a 37° C. shaker, to a density of 2.5×10^9 bacteria according to cell counts (for a total of 2.5×10^11 bacteria). This process was performed 9 times. The average number of generations a bacterium would have grown in each liquid culture is
Four biological replicates of each condition were grown. All liquid cultures, including the small founding culture, had the possible addition of 1 μL/mL ampicillin or 15 ng/mL norfloxacin. […] The fact that most of the “interrelatedness” between bacteria sampled at the end of the culture is important for the way mutation rate is calculated.
MG1655 E. coli were used as wild-type cells for all experiments. The tet-regulated mrcA strain MG1655(CmR::Ptet-mrcA SpR::tetR) was prepared according to Lutz, R.; Bujard, H. (1997) Independent and tight regulation of transcriptional units in Escherichia coli via the LacR/O and the TetR/O and AraC/I1-I2 regulatory elements. Nucleic Acids Research. 25(6):1203-10. […] PNAS 111(20):E2100-E2109, doi: 10.1073/pnas.1201876111. Mutant strains were induced with anhydrous tetracycline at 50 ng/ml. In the mutS knockout strain, MG1655 mutS was replaced with a kanamycin resistance cassette.
0. Restriction digest. a. Incubate 1 μg DNA in 50 μL 1× restriction enzyme buffer with the appropriate amount of restriction enzyme. For this study, 1 unit XmnI was used. Samples were incubated at 37° C. overnight. b. Deactivate restriction enzyme. For XmnI, samples were heated at 65° C. for 20 minutes. 1. 1 cycle PCR with adapter-barcode-primer a. Prepare 50 μL PCR reaction mix using adapter-barcode-primer and 12.5 μL of the sample above (250 ng DNA) b. PCR, 1 cycle: 98° C. 1 min, 60° C. 15 sec, 72° C. 1 min 2. Remove unused barcodes a. Immediately add 1 μL exonuclease I+5 μL buffer. b. Incubate at 37° C. for 1 hr, then 80° C. for 20 min c. Clean sample using PCR purification kit 3. Linear amplification using forward adapter amplifier primers a. Add cleaned DNA to fresh 50 μL reaction mix with forward adapter amplifier primer. b. PCR, 12 cycles: 98° C. 15 sec, 61° C. 15 sec, 72° C. 5 sec Note: The number of linear amplification cycles is limited by off-target amplification.
a. Add adapter-reverse-primer and reverse adapter amplifier primers. b. PCR, 15 cycles: 98° C. 15 sec, 61° C. 15 sec, 72° C. 5 sec 5. Purify with Ampure XP beads Optional: If using multiple samples with phased barcodes, combine DNA first in equimolar concentrations. For this study, quantification at this step was done using TapeStation. 6. Sequence. HiSeq Rapid Run, 150 bp, Paired-End.
After grouping by barcode, sequences were aligned using the forward and reverse [primer] sequences for mrcA and rpoB above. Samples were indexed according to phase. Consensus bases, including indels, are called only when all bases at a given position and barcode have 100% agreement.
Mutation rates in the assay are chosen to maximize the likelihood of recovering the mean mutant frequency for substitutions of a given type X->Y, which occur a Poisson process over a certain number of generations (in this case 113). […]

A further experiment deals with E. coli. The experiment is described as follows: Fluctuation assay of mutation rate with sub-inhibitory antibiotic doses. The class given is cell-based, Escherichia coli. The source says: The effect of sub-inhibitory doses of antibiotics of different classes on mutation rate was investigated using both MDS and detailed fluctuation assays as performed in Garibyan, L. et al. (2003). DNA Repair. 2(5):593-608; and Lang, G. I.; et al. (2008). Genetics 178(1):67-82.

As to `CC1(C)S[C@@H]2[C@H](NC(=O)[C@H](N)c3ccccc3)C(=O)N2[C@H]1C(=O)O` [ampicillin], in experiment [1] (MDS, catalase overexpression mutant, lower basal rate), the “mutation rate in cells overexpressing catalase” value is recorded as “did not increase this lower rate”. The “transversions and indel formation in mrcA” value in experiment [1] (MDS, mrcA) is “increased transversions and indel formation in mrcA”. For the same molecule, the “rate of transition mutations in rpoB” value in experiment [1] (MDS) is listed as “increase in the rate of transition mutations in rpoB”. Further, the “transition rate, anaerobic conditions” value in experiment [1] (cells grown in anaerobic conditions) is reported as “did not display an increase in transition rate”.

With `CCn1cc(C(=O)O)c(=O)c2cc(F)c(N3CCNCC3)cc21` [norfloxacin], the “rate of >1 bp indel formation in both mrcA and rpoB” value in experiment [1] (MDS, 15 ng/mL norfloxacin) is “increased the rate of >1 bp indel formation in both mrcA and rpoB”. In experiment [1] (MDS), the “rate of transition mutations in rpoB” value was “increased the transition substitution rate in rpoB”. Also, the “transition substitution rate in rpoB, fluctuation assays” value with E. coli is on record as “this increase was only seen in cells that were grown to stationary phase”.

The values are drawn from patent publication US20170016062A1, “SEQUENCING METHODS AND KITS” (NEW YORK UNIVERSITY, priority 2015, published 2017).
